Source: ChEMBL document CHEMBL2163290, “Substituted pyrazolones require N2 hydrogen bond donating ability to protect against cytotoxicity from protein aggregation of mutant superoxide dismutase 1” (Bioorg Med Chem Lett, 2012)

Test system: PC-12
Experiment: Neuroprotective activity in rat PC12 cells expressing SOD1 G93A mutant assessed as increase in cell viability after 48 hrs by CalceinAM-based fluorescence assay
Assay type: functional
Settings: PC-12, 48 h

| Compound | EC50 |
| --- | --- |
| O=c1cc(COc2cc(Cl)cc(Cl)c2)[nH]n1-c1nc(-c2ccccc2)cs1 | 1000 nM |
| O=c1cc(COc2cc(Cl)cc(Cl)c2)[nH]n1Cc1cccc(O)c1 | 360 nM |
| O=c1cc(COc2cc(Cl)cc(Cl)c2)[nH]n1-c1ccc(Cl)cc1 | 1730 nM |
| O=c1cc(COc2cc(Cl)cc(Cl)c2)[nH]n1Cc1ccccc1 | 130 nM |
| O=C(c1cccs1)n1[nH]c(COc2cc(Cl)cc(Cl)c2)cc1=O | 310 nM |
| COc1ccc(Cn2[nH]c(COc3cc(Cl)cc(Cl)c3)cc2=O)cc1 | > 32000 nM |
| O=c1cc(COc2cc(Cl)cc(Cl)c2)[nH]n1-c1c(Cl)cc(C(F)(F)F)cc1Cl | > 32000 nM |
| O=C1N[C@H]2[C@H](CS[C@H]2CCCCC(=O)n2[nH]c(COc3cc(Cl)cc(Cl)c3)cc2=O)N1 | 560 nM |
| O=C1CC(COc2cc(Cl)cc(Cl)c2)CN1Cc1ccccc1 (stereo not given) | > 32000 nM |
| O=c1cc(COc2cc(Cl)cc(Cl)c2)[nH]n1-c1ccc([N+](=O)[O-])cc1[N+](=O)[O-] | > 32000 nM |
| O=C(c1ccc(N=C=S)cc1)n1[nH]c(COc2cc(Cl)cc(Cl)c2)cc1=O | 330 nM |
| Cn1[nH]c(COc2cc(Cl)cc(Cl)c2)cc1=O | 670 nM |
| N#CCC(=O)n1[nH]c(COc2cc(Cl)cc(Cl)c2)cc1=O | 420 nM |
| O=c1cc(COc2cc(Cl)cc(Cl)c2)[nH]n1CCCO | 340 nM |
| O=c1cc(COc2cc(Cl)cc(Cl)c2)[nH]n1-c1ccccc1 | 1030 nM |
| Cc1nnsc1C(=O)n1[nH]c(COc2cc(Cl)cc(Cl)c2)cc1=O | 1710 nM |
| O=C(c1cccnc1)n1[nH]c(COc2cc(Cl)cc(Cl)c2)cc1=O | 1320 nM |
| O=c1cc(COc2cc(Cl)cc(Cl)c2)[nH]n1CCO | > 32000 nM |
| CC(=O)n1[nH]c(COc2cc(Cl)cc(Cl)c2)cc1=O | 270 nM |
| O=Cn1[nH]c(COc2cc(Cl)cc(Cl)c2)cc1=O | 490 nM |
| O=C1C=C(COc2cc(Cl)cc(Cl)c2)CN1Cc1ccccc1 | > 32000 nM |
| Cn1c(COc2cc(Cl)cc(Cl)c2)cc(=O)n1C | > 32000 nM |
| O=C(CCCC[C@@H]1SC[C@@H]2NC(=O)N[C@@H]21)NCCOCCOCCOCCOCCC(=O)n1[nH]c(COc2cc(Cl)cc(Cl)c2)cc1=O | 670 nM |
| Nc1ccc(C(=O)n2[nH]c(COc3cc(Cl)cc(Cl)c3)cc2=O)cc1 | 930 nM |
| O=c1cc(COc2cc(Cl)cc(Cl)c2)[nH][nH]1 | 67 nM |
